{"source": "ChEMBL document CHEMBL3526130", "about": "“An evaluation of using rat-derived single-dose neuropharmacokinetic parameters to project accurately large animal unbound brain drug concentrations” (Drug Metab Dispos, 2012)", "key": {"[1]": {"test": "Ratio of unbound brain concentration to drug level in cerebrospinal fluid in Sprague-Dawley rat at 2 mg/kg, sc by LC-MS/MS analysis", "type": "ADME, organism-based", "parameters": "dose 2 mg/kg, route subcutaneous", "settings": "in vivo"}, "[2]": {"test": "AUC(0 to infinity) in Sprague-Dawley rat brain at 2 mg/kg, sc by LC-MS/MS analysis", "type": "ADME, organism-based", "parameters": "dose 2 mg/kg, route subcutaneous, time infinity"}, "[3]": {"test": "AUC(0 to infinity) in Sprague-Dawley rat plasma at 2 mg/kg, sc by LC-MS/MS analysis", "type": "ADME, organism-based", "parameters": "time infinity, dose 2 mg/kg, route subcutaneous"}, "Nucleic Acid [4]": {"test_system": "Nucleic Acid", "test": "Ratio of drug level in cerebrospinal fluid to unbound plasma concentration in Sprague-Dawley rat at 2 mg/kg, sc by LC-MS/MS analysis", "type": "ADME, organism-based", "parameters": "dose 2 mg/kg, route subcutaneous", "settings": "in vivo"}, "[5]": {"test": "Ratio of drug level in brain to plasma in Sprague-Dawley rat at 2 mg/kg, sc by LC-MS/MS analysis", "type": "ADME, organism-based", "parameters": "dose 2 mg/kg, route subcutaneous", "settings": "read-out: BPR"}, "[6]": {"test": "AUC(0 to 2 hrs) in Sprague-Dawley rat plasma at 2 mg/kg, sc by LC-MS/MS analysis", "type": "ADME, organism-based", "parameters": "time < 2 hr, dose 2 mg/kg, route subcutaneous"}, "[7]": {"test": "AUC(0 to infinity) in Sprague-Dawley rat cerebrospinal fluid at 2 mg/kg, sc by LC-MS/MS analysis", "type": "ADME, organism-based", "parameters": "time infinity, dose 2 mg/kg, route subcutaneous"}, "[8]": {"test": "Ratio of unbound drug level in brain to plasma in Sprague-Dawley rat at 2 mg/kg, sc by LC-MS/MS analysis", "type": "ADME, organism-based", "parameters": "dose 2 mg/kg, route subcutaneous"}, "[9]": {"test": "AUC(0 to 2 hrs) in Sprague-Dawley rat cerebrospinal fluid at 2 mg/kg, sc by LC-MS/MS analysis", "type": "ADME, organism-based", "parameters": "time < 2 hr, dose 2 mg/kg, route subcutaneous"}, "[10]": {"test": "AUC(0 to 2 hrs) in Sprague-Dawley rat brain at 2 mg/kg, sc by LC-MS/MS analysis", "type": "ADME, organism-based", "parameters": "time < 2 hr, dose 2 mg/kg, route subcutaneous"}, "[11]": {"test": "AUC(0 to 2 hrs) in cynomolgus monkey cerebrospinal fluid at 1 mg/kg, sc by LC-MS/MS analysis", "type": "ADME, organism-based, Macaca fascicularis", "parameters": "time < 2 hr, dose 1 mg/kg, route subcutaneous"}, "[12]": {"test": "Unbound fraction in Beagle dog brain at 1 mg/kg, sc by LC-MS/MS analysis", "type": "ADME, organism-based, Canis lupus familiaris", "parameters": "dose 1 mg/kg, route subcutaneous"}, "[13]": {"test": "Ratio of drug level in brain to plasma in Sprague-Dawley rat at 3.2 mg/kg, sc by LC-MS/MS analysis", "type": "ADME, organism-based", "parameters": "dose 3.2 mg/kg, route subcutaneous", "settings": "read-out: BPR"}, "Nucleic Acid [14]": {"test_system": "Nucleic Acid", "test": "Ratio of drug level in cerebrospinal fluid to unbound plasma concentration in Sprague-Dawley rat at 3.2 mg/kg, sc by LC-MS/MS analysis", "type": "ADME, organism-based", "parameters": "dose 3.2 mg/kg, route subcutaneous", "settings": "in vivo"}, "[15]": {"test": "Unbound fraction in cynomolgus monkey brain at 1 mg/kg, sc by LC-MS/MS analysis", "type": "ADME, organism-based, Macaca fascicularis", "parameters": "dose 1 mg/kg, route subcutaneous"}, "[16]": {"test": "AUC(0 to infinity) in Sprague-Dawley rat plasma at 3.2 mg/kg, sc by LC-MS/MS analysis", "type": "ADME, organism-based", "parameters": "time infinity, dose 3.2 mg/kg, route subcutaneous"}, "[17]": {"test": "AUC(0 to 2 hrs) in cynomolgus monkey plasma at 1 mg/kg, sc by LC-MS/MS analysis", "type": "ADME, organism-based, Macaca fascicularis", "parameters": "time < 2 hr, dose 1 mg/kg, route subcutaneous"}, "[18]": {"test": "AUC(0 to infinity) in Sprague-Dawley rat cerebrospinal fluid at 3.2 mg/kg, sc by LC-MS/MS analysis", "type": "ADME, organism-based", "parameters": "time infinity, dose 3.2 mg/kg, route subcutaneous"}, "[19]": {"test": "AUC(0 to 2 hrs) in Sprague-Dawley rat cerebrospinal fluid at 3.2 mg/kg, sc by LC-MS/MS analysis", "type": "ADME, organism-based", "parameters": "time < 2 hr, dose 3.2 mg/kg, route subcutaneous"}, "[20]": {"test": "AUC(0 to 2 hrs) in cynomolgus monkey brain at 1 mg/kg, sc by LC-MS/MS analysis", "type": "ADME, organism-based, Macaca fascicularis", "parameters": "time < 2 hr, dose 1 mg/kg, route subcutaneous"}, "[21]": {"test": "Ratio of unbound brain concentration to drug level in cerebrospinal fluid in cynomolgus monkey at 1 mg/kg, sc by LC-MS/MS analysis", "type": "ADME, organism-based, Macaca fascicularis", "parameters": "dose 1 mg/kg, route subcutaneous", "settings": "in vivo"}, "[22]": {"test": "Ratio of unbound drug level in brain to plasma in Beagle dog at 1 mg/kg, sc by LC-MS/MS analysis", "type": "ADME, organism-based, Canis lupus familiaris", "parameters": "dose 1 mg/kg, route subcutaneous", "settings": "brain and plasma"}, "[23]": {"test": "AUC(0 to 2 hrs) in Sprague-Dawley rat plasma at 3.2 mg/kg, sc by LC-MS/MS analysis", "type": "ADME, organism-based", "parameters": "time < 2 hr, dose 3.2 mg/kg, route subcutaneous"}, "[24]": {"test": "Ratio of unbound drug level in brain to plasma in cynomolgus monkey at 1 mg/kg, sc by LC-MS/MS analysis", "type": "ADME, organism-based, Macaca fascicularis", "parameters": "dose 1 mg/kg, route subcutaneous", "settings": "brain and plasma"}, "[25]": {"test": "Ratio of unbound brain concentration to drug level in cerebrospinal fluid in Sprague-Dawley rat at 3.2 mg/kg, sc by LC-MS/MS analysis", "type": "ADME, organism-based", "parameters": "dose 3.2 mg/kg, route subcutaneous", "settings": "in vivo"}, "[26]": {"test": "Ratio of drug level in brain to plasma in Beagle dog at 1 mg/kg, sc by LC-MS/MS analysis", "type": "ADME, organism-based, Canis lupus familiaris", "parameters": "dose 1 mg/kg, route subcutaneous", "settings": "brain and plasma, read-out: BPR"}, "[27]": {"test": "AUC(0 to infinity) in Sprague-Dawley rat brain at 3.2 mg/kg, sc by LC-MS/MS analysis", "type": "ADME, organism-based", "parameters": "time infinity, dose 3.2 mg/kg, route subcutaneous"}, "[28]": {"test": "Unbound fraction in cynomolgus monkey plasma at 1 mg/kg, sc by LC-MS/MS analysis", "type": "ADME, organism-based, Macaca fascicularis", "parameters": "dose 1 mg/kg, route subcutaneous"}, "[29]": {"test": "Ratio of unbound drug level in brain to plasma in Sprague-Dawley rat at 3.2 mg/kg, sc by LC-MS/MS analysis", "type": "ADME, organism-based", "parameters": "dose 3.2 mg/kg, route subcutaneous"}, "[30]": {"test": "Unbound fraction in Beagle dog plasma at 1 mg/kg, sc by LC-MS/MS analysis", "type": "ADME, organism-based, Canis lupus familiaris", "parameters": "dose 1 mg/kg, route subcutaneous"}, "[31]": {"test": "AUC(0 to 4 hrs) in Beagle dog brain at 1 mg/kg, sc by LC-MS/MS analysis", "type": "ADME, organism-based, Canis lupus familiaris", "parameters": "time < 4 hr, dose 1 mg/kg, route subcutaneous"}, "[32]": {"test": "AUC(0 to 4 hrs) in Beagle dog plasma at 1 mg/kg, sc by LC-MS/MS analysis", "type": "ADME, organism-based, Canis lupus familiaris", "parameters": "time < 4 hr, dose 1 mg/kg, route subcutaneous"}, "[33]": {"test": "AUC(0 to 2 hrs) in Sprague-Dawley rat brain at 3.2 mg/kg, sc by LC-MS/MS analysis", "type": "ADME, organism-based", "parameters": "time < 2 hr, dose 3.2 mg/kg, route subcutaneous"}, "Nucleic Acid [34]": {"test_system": "Nucleic Acid", "test": "Ratio of drug level in cerebrospinal fluid to unbound plasma concentration in cynomolgus monkey at 1 mg/kg, sc by LC-MS/MS analysis", "type": "ADME, organism-based, Macaca fascicularis", "parameters": "dose 1 mg/kg, route subcutaneous", "settings": "in vivo"}, "[35]": {"test": "Ratio of drug level in brain to plasma in cynomolgus monkey at 1 mg/kg, sc by LC-MS/MS analysis", "type": "ADME, organism-based, Macaca fascicularis", "parameters": "dose 1 mg/kg, route subcutaneous", "settings": "brain and plasma, read-out: BPR"}}, "data": [{"smiles": "Clc1ccc2c(c1)N=C(N1CCNCC1)c1ccccc1N2", "note": "[N-DESMETHYLCLOZAPINE]", "values": [{"measurement": "Ratio", "setting": "[1]", "value": 0.26}, {"measurement": "AUC(0-inf)", "setting": "[2]", "value": 699, "unit": "ng·h/mL"}, {"measurement": "AUC(0-inf)", "setting": "[3]", "value": 570, "unit": "ng·h/mL"}, {"measurement": "Ratio", "setting": "Nucleic Acid [4]", "value": 0.22}, {"measurement": "Kp", "setting": "[5]", "value": 0.64}, {"measurement": "AUC(0-t) at 2 h", "setting": "[6]", "value": 346, "unit": "ng·h/mL"}, {"measurement": "AUC(0-inf)", "setting": "[7]", "value": 8.91, "unit": "ng·h/mL"}, {"measurement": "Kp uu", "setting": "[8]", "value": 0.06}, {"measurement": "AUC(0-t) at 2 h", "setting": "[9]", "value": 4.8, "unit": "ng·h/mL"}, {"measurement": "AUC(0-t) at 2 h", "setting": "[10]", "value": 221, "unit": "ng·h/mL"}]}, {"smiles": "CNCc1cc(F)c(Cl)cc1Oc1cccc(OC)c1C", "values": [{"measurement": "AUC(0-t) at 2 h", "setting": "[11]", "value": 2.18, "unit": "ng·h/mL"}, {"measurement": "fraction unbound", "setting": "[12]", "value": 0.00443}, {"measurement": "Kp", "setting": "[13]", "value": 11.1}, {"measurement": "Ratio", "setting": "Nucleic Acid [14]", "value": 1.47}, {"measurement": "fraction unbound", "setting": "[15]", "value": 0.0038}, {"measurement": "AUC(0-inf)", "setting": "[16]", "value": 479, "unit": "ng·h/mL"}, {"measurement": "AUC(0-t) at 2 h", "setting": "[17]", "value": 150, "unit": "ng·h/mL"}, {"measurement": "AUC(0-inf)", "setting": "[18]", "value": 8.12, "unit": "ng·h/mL"}, {"measurement": "AUC(0-t) at 2 h", "setting": "[19]", "value": 6.42, "unit": "ng·h/mL"}, {"measurement": "AUC(0-t) at 2 h", "setting": "[20]", "value": 2250, "unit": "ng·h/mL"}, {"measurement": "Ratio", "setting": "[21]", "value": 3.92}, {"measurement": "Kp uu", "setting": "[22]", "value": 4.61}, {"measurement": "AUC(0-t) at 2 h", "setting": "[23]", "value": 302, "unit": "ng·h/mL"}, {"measurement": "Kp uu", "setting": "[24]", "value": 2.04}, {"measurement": "Ratio", "setting": "[25]", "value": 2.65}, {"measurement": "Kp", "setting": "[26]", "value": 16.9}, {"measurement": "AUC(0-inf)", "setting": "[27]", "value": 5570, "unit": "ng·h/mL"}, {"measurement": "fraction unbound", "setting": "[28]", "value": 0.0279}, {"measurement": "Kp uu", "setting": "[29]", "value": 3.9}, {"measurement": "fraction unbound", "setting": "[30]", "value": 0.0162}, {"measurement": "AUC(0-t) at 4 h", "setting": "[31]", "value": 2260, "unit": "ng·h/mL"}, {"measurement": "AUC(0-t) at 4 h", "setting": "[32]", "value": 134, "unit": "ng·h/mL"}, {"measurement": "AUC(0-t) at 2 h", "setting": "[33]", "value": 3360, "unit": "ng·h/mL"}, {"measurement": "Ratio", "setting": "Nucleic Acid [34]", "value": 0.52}, {"measurement": "Kp", "setting": "[35]", "value": 15}]}]}
